In ChEMBL document CHEMBL3046544, “Inhibitory Activity of N-Substituted-2-piperidones with a 1, 4-Benzodioxan Ring on Germination of Barnyardgrass” (J Pestic Sci, 2001):

How the values were obtained:
Type in all cases: functional
Conditions in all cases: 120 h
Echinochloa esculenta [1] = experiment: Herbicidal activity against Echinochloa esculenta assessed as inhibition of seed germination at 1 nM after 5 days relative to control
Echinochloa esculenta [2] = experiment: Herbicidal activity against Echinochloa esculenta assessed as inhibition of seed germination at 10 nM after 5 days relative to control
Echinochloa esculenta [3] = experiment: Herbicidal activity against Echinochloa esculenta assessed as inhibition of seed germination at 100 nM after 5 days relative to control
Echinochloa esculenta [4] = experiment: Herbicidal activity against Echinochloa esculenta assessed as inhibition of seed germination at 1000 nM after 5 days relative to control

Compound	inhibition at 0.001 µM (Echinochloa esculenta [1]) [%]	inhibition at 0.01 µM (Echinochloa esculenta [2]) [%]	inhibition at 0.1 µM (Echinochloa esculenta [3]) [%]	inhibition at 1 µM (Echinochloa esculenta [4]) [%]
O=C1C(C(O)c2ccc3c(c2)OCC(c2ccccc2)O3)CCCN1Cc1ccccc1 (mixture of isomers)	< 49	< 49	< 49	< 49
O=C1C(C(O)c2ccc3ccccc3n2)CCCN1Cc1ccccc1 (mixture of isomers)	< 49	< 49	< 49	> 90
CCCCCCC(O)C1CCCN(Cc2ccccc2)C1=O (centres undefined)	< 49	< 49	50	> 90
O=C1C(C(O)c2ccc(Cl)c(Cl)c2)CCCN1Cc1ccccc1 (mixture of isomers)	< 49	< 49	< 49	50
O=C1C(C(O)c2ccc3c(c2)OCC(COCc2ccccc2)O3)CCCN1Cc1ccccc1 (mixture of isomers)	< 49	< 49	50	> 90
O=C1C(C(O)c2ccccn2)CCCN1Cc1ccccc1 (mixture of isomers)	< 49	< 49	< 49	< 49
COc1cccc(C(O)C2CCCN(Cc3ccccc3)C2=O)c1 (mixture of isomers)	< 49	< 49	< 49	< 49
O=C1C(C(O)c2cccc(Cl)c2)CCCN1Cc1ccccc1 (mixture of isomers)	< 49	< 49	< 49	> 90
O=C1C(C(O)c2cccc([N+](=O)[O-])c2)CCCN1Cc1ccccc1 (mixture of isomers)	< 49	< 49	< 49	50
COc1cc2c(cc1C(O)C1CCCN(Cc3ccccc3)C1=O)OCCO2 (mixture of isomers)	< 49	< 49	50	50
CCOCC1COc2cc(C(O)C3CCCN(Cc4ccccc4)C3=O)ccc2O1 (mixture of isomers)	< 49	< 49	50	50
O=C1C(C(O)c2ccc3c(c2)OCCO3)Cc2ccccc2N1C/C=C/c1ccccc1 (mixture of isomers)	< 49	< 49	< 49	< 49
O=C1C(C(O)c2ccccc2[N+](=O)[O-])CCCN1Cc1ccccc1 (mixture of isomers)	< 49	< 49	< 49	50
Cc1ccccc1C(O)C1CCCN(Cc2ccccc2)C1=O (mixture of isomers)	< 49	< 49	< 49	> 90
COc1ccc(C(O)C2CCCN(Cc3ccccc3)C2=O)cc1 (mixture of isomers)	< 49	< 49	< 49	> 90
O=C1C(C(O)c2ccc(C(F)(F)F)cc2)CCCN1Cc1ccccc1 (mixture of isomers)	< 49	< 49	< 49	50
CC(C)CCC(O)C1CCCN(Cc2ccccc2)C1=O (mixture of isomers)	< 49	< 49	50	50
O=C1C(C(O)C/C=C/c2ccccc2)CCCN1Cc1ccccc1 (mixture of isomers)	< 49	< 49	50	50
O=C1C(C(O)c2ccnc3ccccc23)CCCN1Cc1ccccc1 (mixture of isomers)	< 49	< 49	< 49	> 90
O=C1C(C(O)c2ccc3ccccc3c2)CCCN1Cc1ccccc1 (mixture of isomers)	< 49	< 49	< 49	< 49
O=C1C(C(O)c2ccccc2Cl)CCCN1Cc1ccccc1 (mixture of isomers)	< 49	< 49	< 49	> 90
COCC1COc2cc(C(O)C3CCCN(Cc4ccccc4)C3=O)ccc2O1 (mixture of isomers)	< 49	< 49	> 90	> 90
COc1ccc(C(O)C2CCCN(Cc3ccccc3)C2=O)c(OC)c1 (mixture of isomers)	< 49	< 49	< 49	< 49

Compound	inhibition at 0.001 µM (Echinochloa esculenta [1]) [%]	inhibition at 0.01 µM (Echinochloa esculenta [2]) [%]	inhibition at 0.1 µM (Echinochloa esculenta [3]) [%]	inhibition at 1 µM (Echinochloa esculenta [4]) [%]
O=C1C(C(O)c2cccc(O)c2)CCCN1Cc1ccccc1 (mixture of isomers)	< 49	< 49	< 49	50
COc1ccc(C(O)C2CCCN(Cc3ccccc3)C2=O)cc1OC (mixture of isomers)	< 49	< 49	50	> 90
O=C1C(C(O)c2ccc(Oc3ccccc3)cc2)CCCN1Cc1ccccc1 (mixture of isomers)	< 49	< 49	< 49	< 49
Cc1cccc(C(O)C2CCCN(Cc3ccccc3)C2=O)c1 (mixture of isomers)	< 49	< 49	< 49	> 90
O=C1C(C(O)c2cnc3ccccc3c2)CCCN1Cc1ccccc1 (mixture of isomers)	< 49	< 49	< 49	< 49
O=C1C(C(O)c2ccccc2C(F)(F)F)CCCN1Cc1ccccc1 (mixture of isomers)	< 49	< 49	< 49	50
O=C1C(C(O)c2ccncc2)CCCN1Cc1ccccc1 (mixture of isomers)	< 49	< 49	< 49	< 49
O=C1C(C(O)c2ccc([N+](=O)[O-])cc2)CCCN1Cc1ccccc1 (mixture of isomers)	< 49	< 49	< 49	50
O=C1C(C(O)c2ccc3c(c2)OCCO3)CCCCN1C/C=C/c1ccccc1 (mixture of isomers)	< 49	< 49	< 49	> 90
O=C1C(C(O)c2ccc3c(c2)OCO3)CCCN1Cc1ccccc1 (mixture of isomers)	< 49	< 49	< 49	< 49
O=C1C(C(O)c2cccnc2)CCCN1Cc1ccccc1 (mixture of isomers)	< 49	< 49	< 49	50
O=C1C(C(O)c2cccc(C(F)(F)F)c2)CCCN1Cc1ccccc1 (centres undefined)	< 49	< 49	50	50
O=C1C(C(O)c2cccc3ccccc23)CCCN1Cc1ccccc1 (mixture of isomers)	< 49	< 49	< 49	< 49
CC(C)C(O)C1CCCN(Cc2ccccc2)C1=O (mixture of isomers)	< 49	< 49	< 49	< 49
O=C1C(C(O)C2CCCCC2)CCCN1Cc1ccccc1 (mixture of isomers)	< 49	< 49	< 49	< 49
COc1cc(C(O)C2CCCN(Cc3ccccc3)C2=O)cc2c1OCCO2 (mixture of isomers)	< 49	< 49	< 49	50
COc1ccccc1C(O)C1CCCN(Cc2ccccc2)C1=O (mixture of isomers)	< 49	< 49	< 49	50
O=C1C(C(O)c2ccc(Cl)cc2)CCCN1Cc1ccccc1 (mixture of isomers)	< 49	< 49	50	> 90
O=C1C(C(O)c2ccccc2)CCCN1Cc1ccccc1 (mixture of isomers)	< 49	< 49	< 49	> 90
Cc1ccc(C(O)C2CCCN(Cc3ccccc3)C2=O)cc1 (mixture of isomers)	< 49	< 49	< 49	> 90
O=C1C(C(O)c2cccc(Oc3ccccc3)c2)CCCN1Cc1ccccc1 (mixture of isomers)	< 49	< 49	< 49	50
O=C1C(C(O)c2ccc(O)cc2)CCCN1Cc1ccccc1 (mixture of isomers)	< 49	< 49	< 49	50
O=C1C(C(O)c2ccc(Cl)cc2Cl)CCCN1Cc1ccccc1 (mixture of isomers)	< 49	< 49	< 49	50
